Legend:
[1] = Jet nebulizer release profile and output; format: physicochemical; details: within KPA filaments 1 mM
Method: FIGS. 24A-24F are jet nebulizer release profiles of EPA, OPA, and KPA supramolecular filaments with starting formulation concentrations at (24A) 10 μM, (24B) 100 μM, and (24C) 1000 μM, showing a linear release pattern for each system over the course of a 10 min nebulization event (3 mL solution). Data given represent mean #SD (n=3); dashed lines represent line of best fit from linear regression analysis. (24D) The aerosol output rate (μg/min) of the supramolecular filaments from a jet nebulizer at different formulation concentrations, showing no statistically significant difference (ns) between filaments at the same concentration and output rate scales linearly with increasing concentration. Data are given as mean±SD (p>0.05 amongst filament systems, ****p<0.0001 amongst concentrations, two-way ANOVA, n=3). […]
We next monitored the release pattern of the supramolecular filaments in aerosol droplets from a jet nebulizer device alongside the output rate. First analyzing the blank EPA, OPA, and KPA filaments, 3 mL solutions of the filaments were loaded into a jet nebulizer at varying concentrations and the remaining concentration of PA molecules and fluid weight loss were monitored over the course of a 10 min nebulization event. FIGS. 24A-C represents the measured release profile of the three filament systems at 10 µM, 100 μM, and 1000 μM, respectively. […]

[2] = Loading capacity of drugs/dye within KPA filaments; format: physicochemical; details: encapsulated in KPA filaments, % by mass
Excerpt: FIGS. 20A-20C show (20A) the molecular structure of the lung disease-relevant drugs and fluorescent dye used in loading within the supramolecular filaments: paclitaxel (PTX, MW=853.92 g/mol), the anticancer drug; coumarin 6 (Cou6, MW=350.44 g/mol), the green fluorescent dye; and budesonide (BUD, MW=430.54 g/mol), the anti-inflammatory glucocorticoid used to treat symptoms of asthma and chronic obstructive pulmonary disease (top). (20B) The encapsulation process of hydrophobic drugs and dyes within supramolecular peptide amphiphile (PA)-based filaments, where dissolution of PA monomers and drug/dye in aqueous solutions results in their self-assembly with the drug/dye loaded within the hydrophobic core (left). The loading capacity of PTX, Cou6, and BUD based on mass (left axis, solid bars) and mole (right axis, checkered bars) percent within KPA supramolecular filaments (right). Data are given as mean±SD (n=5). (20C) Representative transmission electron microscopy (TEM) images of KPA filaments loaded with PTX (i, ii), Cou6 (iii, iv), and BUD (v, vi) before and after nebulization at 500 μM. Diameters are given as mean±SD (n=35).
With better insight into nebulization stability and the mechanism of supramolecular filament breakdown, we next sought to assess whether these systems can successfully carry drugs and dyes within aerosol droplets for potential inhalation-based therapies. […]

With `CCN(CC)c1ccc2cc(-c3nc4ccccc4s3)c(=O)oc2c1` [Cou6, coumarin 6] the “aerosol output rate of encapsulated molecules” value [1] was “comparable but higher than PTX” and the “loading capacity by mass within KPA filaments” value [2] was 3.7%.

Source: patent US12642860B2, “Filamentous nanostructures and their use for treatment of pulmonary disease” (THE JOHNS HOPKINS UNIVERSITY, priority 2019, dated 2026)
